# Assay results as given in patent US7910751B2, “Heterocyclidene acetamide derivative” (Mochida Pharmaceutical Co., Ltd., priority 2005, dated 2011).
# Molecular target: T1, human TRPV1 (Homo sapiens, UniProt Q8NER1)
# T1 construct: expressed in transfected cells; host or cells: CHO-K1
# Assay: Measurement of capsaicin-induced Ca influx in human TRPV1 transformed CHO cell line using FDSS-6000
# Type: cell-based
# Conditions: concentration at which the capsaicin concentration-reaction curve is shifted two times to the right, human TRPV1 transformed CHO cells
# T1 sequence (Q8NER1 whole entry): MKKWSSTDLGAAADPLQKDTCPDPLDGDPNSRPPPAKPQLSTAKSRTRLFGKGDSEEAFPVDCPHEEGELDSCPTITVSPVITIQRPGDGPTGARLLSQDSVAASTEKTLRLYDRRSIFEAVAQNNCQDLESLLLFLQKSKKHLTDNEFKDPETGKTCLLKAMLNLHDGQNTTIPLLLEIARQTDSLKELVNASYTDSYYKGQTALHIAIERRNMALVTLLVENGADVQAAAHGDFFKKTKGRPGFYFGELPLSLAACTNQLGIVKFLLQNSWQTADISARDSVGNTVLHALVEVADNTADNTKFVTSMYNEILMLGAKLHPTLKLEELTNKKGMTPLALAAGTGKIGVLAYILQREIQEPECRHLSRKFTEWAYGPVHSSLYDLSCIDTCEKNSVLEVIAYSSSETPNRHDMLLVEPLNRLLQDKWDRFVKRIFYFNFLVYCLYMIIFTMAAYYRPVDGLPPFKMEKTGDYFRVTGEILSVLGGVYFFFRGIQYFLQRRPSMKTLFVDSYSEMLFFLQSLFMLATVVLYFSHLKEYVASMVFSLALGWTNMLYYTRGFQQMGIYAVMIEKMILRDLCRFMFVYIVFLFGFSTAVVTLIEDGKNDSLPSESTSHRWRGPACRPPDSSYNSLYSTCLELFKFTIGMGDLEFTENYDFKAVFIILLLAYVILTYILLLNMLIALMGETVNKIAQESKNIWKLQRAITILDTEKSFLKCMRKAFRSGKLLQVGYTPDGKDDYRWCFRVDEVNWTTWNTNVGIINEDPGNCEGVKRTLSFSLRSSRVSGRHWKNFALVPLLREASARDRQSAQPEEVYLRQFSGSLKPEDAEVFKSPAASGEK
row,Compound,A2 VALUE
1,"CC1(C)C/C(=C\C(=O)Nc2cccc3c2CC(O)CN3)c2ccc(C(F)(F)F)cc2O1 (stereo not shown) [Example 246, (E)-2-(7-trifluoromethyl-2,2-dimethylchroman-4-ylidene)-N-(3-hydroxy-1,2,3,4-tetrahydroquinolin-5-yl)acetamide]",A (compounds of the present invention having an A2 value of less than 100 nM are represented by A)
2,"O=C(/C=C1/CCCOc2cc(C(F)(F)F)ccc21)Nc1ccc2cccnc2c1 [Example 247, (Z)-2-(8-trifluoromethyl-3,4-dihydrobenzo[b]oxepin-5(2H)-ylidene)-N-(quinolin-7-yl)acetamide]",A (compounds of the present invention having an A2 value of less than 100 nM are represented by A)
3,"O=C(/C=C1\CCCOc2cc(C(F)(F)F)c(F)cc21)Nc1cccc2c1CC(O)CC2 (stereo not shown) [Example 248, (E)-2-(7-fluoro-8-trifluoromethyl-3,4-dihydrobenzo[b]oxepin-5-(2H)-ylidene)-N-(7-hydroxy-5,6,7,8-tetrahydronaphthalen-1-yl)acetamide]",A (compounds of the present invention having an A2 value of less than 100 nM are represented by A)
4,"O=C(/C=C1\CC2(CCC2)Oc2cc(C(F)(F)F)ccc21)Nc1cccc2c1CC(O)CC2 (stereo not shown) [Example 251, (E)-2-(7-trifluoromethyl-2,2-cyclobutylchroman-4-ylidene)-N-(7-hydroxy-5,6,7,8-tetrahydronaphthalen-1-yl)acetamide]",A (compounds of the present invention having an A2 value of less than 100 nM are represented by A)
5,"O=C(/C=C1\CC2(CCC2)Oc2cc(C(F)(F)F)ccc21)Nc1cccc2c1CC(O)CN2 (stereo not shown) [Example 252, (E)-N-(3-hydroxy-1,2,3,4-tetrahydroquinolin-5-yl)-2-(7-trifluoromethyl-2,2-cyclobutylchroman-4-ylidene)acetamide]",A (compounds of the present invention having an A2 value of less than 100 nM are represented by A)
6,"O=C(/C=C1\CCCOc2cc(C(F)(F)F)ccc21)Nc1cccc2[nH]ncc12 [Example 253, (E)-2-(8-trifluoromethyl-3,4-dihydrobenzo[b]oxepin-5(2H)-ylidene)-N-(1H-indazol-4-yl)acetamide]",A (compounds of the present invention having an A2 value of less than 100 nM are represented by A)
7,"O=C(/C=C1\CCCOc2cc(C(F)(F)F)ccc21)Nc1cccc2cn[nH]c12 [Example 254, (E)-2-(8-trifluoromethyl-3,4-dihydrobenzo[b]oxepin-5(2H)-ylidene)-N-(1H-indazol-7-yl)acetamide]",A (compounds of the present invention having an A2 value of less than 100 nM are represented by A)
